Reference: EP0412158A1, “ONCOSTATIC DRUG” (priority 1987, dated 1988)
Like-named read-outs stand apart in the source and are kept apart here. Marks after values point to notes of the source that are not given here.

Test system: human breast cancer (MX-1)
Assay type: in vivo, female nude mice
Settings: for T/C: tumor volume
Method: A patch of human breast cancer [cancer cells recommended by National Cancer Institute (NCI) of U.S.A.] (MX-1) measuring approximately 2 x 2 mm in area was transplanted to female nude mice 5 weeks old. For 10 days following the 17th day of the transplantation, an aqueous solution containing 1% by weight of the aforementioned isopropylammonium polymolybdate (Compound A) was administered continuously at a dose of 100 mg/kg or 200 mg/kg once per day by intraperitoneal injection (ip). After the stop of the administration, the volume of tumor was measured daily for 15 or 20 days to evaluate the effect of the compound. With either of the dose of 100 mg/kg and the dose of 200 mg/kg, significant suppression of hyperplasia began to appear around the 6th day of administration of ip (x 10). Even after the stop of the administration (25th or 30th day), a distinct suppression of cancerous hyperplasia of about 70% was retained. Generally, by the NCI standard, a ratio of suppression exceeding 50% is rated as effective. […] For comparison, similar mice to which the human cancer was transplanted and the aqueous solution was not administered were tested by following the procedure described above.

[NH3C3H7(iso)]s (Mo7O24] • 3H2O [Compound A]
suppression of cancerous hyperplasia (100 mg/kg and 200 mg/kg ip ×10, after the stop of the administration (25th or 30th day)): about 70% | Volume of tumor (100 mg/kg ip ×10, 0 day): 278.3±22.0 mm^3 | Volume of tumor (100 mg/kg ip ×10, 1 day): 283.3±50.8 mm^3 | T/C (100 mg/kg ip ×10, 1 day): 67.3% | Volume of tumor (100 mg/kg ip ×10, 2 day): 302.3±58.6 mm^3 | T/C (100 mg/kg ip ×10, 2 day): 58.6% | Volume of tumor (100 mg/kg ip ×10, 3 day): 324.7±123.5 mm^3 | T/C (100 mg/kg ip ×10, 3 day): 60.5% | Volume of tumor (100 mg/kg ip ×10, 4 day): 366.3±121.7 mm^3 | T/C (100 mg/kg ip ×10, 4 day): 60.7% | Volume of tumor (100 mg/kg ip ×10, 5 day): 413.7±168.8 mm^3 | T/C (100 mg/kg ip ×10, 5 day): 57.8% | Volume of tumor (100 mg/kg ip ×10, 6 day): 366.0±121.3 mm^3 | T/C (100 mg/kg ip ×10, 6 day): 44.2** % | Volume of tumor (100 mg/kg ip ×10, 7 day): 302.7±173.5 mm^3 | T/C (100 mg/kg ip ×10, 7 day): 33.3** % | Volume of tumor (100 mg/kg ip ×10, 9 day): 397.3±226.9 mm^3 | T/C (100 mg/kg ip ×10, 9 day): 36.9* % | Volume of tumor (100 mg/kg ip ×10, 10 day): 406.7±202.6 mm^3 | T/C (100 mg/kg ip ×10, 10 day): 29.7*** % | Volume of tumor (100 mg/kg ip ×10, 15 day): 734.0±524.0 mm^3 | T/C (100 mg/kg ip ×10, 15 day): 33.3* % | Volume of tumor (100 mg/kg ip ×10, 19 day): 994.0±613.0 mm^3 | T/C (100 mg/kg ip ×10, 19 day): 37.4* % | Volume of tumor (100 mg/kg ip ×10, 21 day): 1039.0±646.0 mm^3 | T/C (100 mg/kg ip ×10, 21 day): 30.0* % | Volume of tumor (100 mg/kg ip ×10, 25 day): 1301.0±912.3 mm^3 | T/C (100 mg/kg ip ×10, 25 day): 32.6* % | Volume of tumor (200 mg/kg ip ×10, 1 day): 371.8±10.8 mm^3 | Volume of tumor (200 mg/kg ip ×10, 2 day): 439.8±56.9 mm^3 | Volume of tumor (200 mg/kg ip ×10, 4 day): 518.8±54.7 mm^3 | T/C (200 mg/kg ip ×10, 4 day): 62.1* % | Volume of tumor (200 mg/kg ip ×10, 5 day): 610.5±15.2 mm^3 | T/C (200 mg/kg ip ×10, 5 day): 55.9* % | Volume of tumor (200 mg/kg ip ×10, 6 day): 656.8±25.7 mm^3 | T/C (200 mg/kg ip ×10, 6 day): 62.9**** % | Volume of tumor (200 mg/kg ip ×10, 7 day): 759.3±84.3 mm^3 | T/C (200 mg/kg ip ×10, 7 day): 54.5** % | Volume of tumor (200 mg/kg ip ×10, 8 day): 852.0±126.7 mm^3 | T/C (200 mg/kg ip ×10, 8 day): 58.1* % | Volume of tumor (200 mg/kg ip ×10, 9 day): 695.7±29.6 mm^3 | T/C (200 mg/kg ip ×10, 9 day): 42.4*** % | Volume of tumor (200 mg/kg ip ×10, 10 day): 759.7±21.1 mm^3 | T/C (200 mg/kg ip ×10, 10 day): 41.9** % | Volume of tumor (200 mg/kg ip ×10, 11 day): 816.7±16.7 mm^3 | T/C (200 mg/kg ip ×10, 11 day): 39.3** % | Volume of tumor (200 mg/kg ip ×10, 13 day): 1070.0±41.0 mm^3 | T/C (200 mg/kg ip ×10, 13 day): 39.9*** % | Volume of tumor (200 mg/kg ip ×10, 16 day): 1110.0±21.0 mm^3 | T/C (200 mg/kg ip ×10, 16 day): 34.5*** % | Volume of tumor (200 mg/kg ip ×10, 18 day): 1446.0±75.0 mm^3 | T/C (200 mg/kg ip ×10, 18 day): 33.9*** % | Volume of tumor (200 mg/kg ip ×10, 19 day): 1405.0±159.8 mm^3 | T/C (200 mg/kg ip ×10, 19 day): 29.9*** % | Volume of tumor (200 mg/kg ip ×10, 22 day): 1583.3±145.2 mm^3 | T/C (200 mg/kg ip ×10, 22 day): 30.9*** % | Volume of tumor (200 mg/kg ip ×10, 25 day): 1708.0±243.2 mm^3 | T/C (200 mg/kg ip ×10, 25 day): 29.2*** % | Volume of tumor (200 mg/kg ip ×10, 30 day): 2033.7±430.9 mm^3 | T/C (200 mg/kg ip ×10, 30 day): 27.2*** %
